US11292821B2, “Peptides and combination of peptides for use in immunotherapy against lung cancer, including NSCLC, SCLC and other cancers” (Immatics Biotechnologies GmbH, priority 2017, dated 2022)
One block for each substance: values may come before it.

Tests used:
[1] = target: HLA-A*02 (Homo sapiens, UniProt P04439, D140Y/D185E/D98H/E176V/E277Q/G131W/G231S/I119V/I121R/I166T/I218V/N151K/N90K/P208A/P217A/Q86G/Q94H/R138H/R169H); assay: MHC binding assay (UV-ligand exchange, β2m ELISA)
[2] = test system: HLA-B*44; assay: MHC binding assay (UV-ligand exchange, β2m ELISA); parameters: species or system human; conditions: for Peptide exchange (peptide exchange yield, MHC class I binding score): UV-ligand exchange, β2m ELISA
[3] = test system: CD8+ T cells; assay: In vitro T-cell priming assay with aAPCs (in vitro immunogenicity for MHC class I presented peptides); format: cell-based, human; conditions: in vitro immunogenicity, HLA B*44

Substance: 86 (FVIDGFDEL; listed as Homo sapiens) [compound 86]
Peptide exchange (peptide exchange yield, MHC class I binding score) [1]: “++++” (>75% = ++++)

Substance: 91 (FALPGLLHA; listed as Homo sapiens) [compound 91]
Peptide exchange (peptide exchange yield, MHC class I binding score) [1]: “+++” (>50 = +++)

Substance: 92 (NLRDLLSEV; listed as Homo sapiens) [compound 92]
Peptide exchange (peptide exchange yield, MHC class I binding score) [1]: “+++” (>50 = +++)

Substance: 98 (LQSSGLTLLL; listed as Homo sapiens) [compound 98]
Peptide exchange (peptide exchange yield, MHC class I binding score) [1]: “++++” (>75% = ++++)

Substance: 99 (FLKEKVPGI; listed as Homo sapiens) [compound 99]
Peptide exchange (peptide exchange yield, MHC class I binding score) [1]: “++++” (>75% = ++++)

Substance: 100 (RQYPTPFQL; listed as Homo sapiens) [compound 100]
Peptide exchange (peptide exchange yield, MHC class I binding score) [1]: “++++” (>75% = ++++)

Substance: 102 (SLLEQAIAL; listed as Homo sapiens) [compound 102]
Peptide exchange (peptide exchange yield, MHC class I binding score) [1]: “++++” (>75% = ++++)

Substance: 103 (FLYYPDPVL; listed as Homo sapiens) [compound 103]
Peptide exchange (peptide exchange yield, MHC class I binding score) [1]: “++++” (>75% = ++++)

Substance: 104 (GMLDIFWGV; listed as Homo sapiens) [compound 104]
Peptide exchange (peptide exchange yield, MHC class I binding score) [1]: “++++” (>75% = ++++)

Substance: 105 (SLLTHIPTA; listed as Homo sapiens) [compound 105]
Peptide exchange (peptide exchange yield, MHC class I binding score) [1]: “++++” (>75% = ++++)

Substance: 106 (FIIDTTYPAYV; listed as Homo sapiens) [compound 106]
Peptide exchange (peptide exchange yield, MHC class I binding score) [1]: “++++” (>75% = ++++)

Substance: 107 (LLQGAIESV; listed as Homo sapiens) [compound 107]
Peptide exchange (peptide exchange yield, MHC class I binding score) [1]: “++++” (>75% = ++++)

Substance: 109 (LLLGSIGLLGV; listed as Homo sapiens) [compound 109]
Peptide exchange (peptide exchange yield, MHC class I binding score) [1]: “++++” (>75% = ++++)

Substance: 110 (LLADFQALL; listed as Homo sapiens) [compound 110]
Peptide exchange (peptide exchange yield, MHC class I binding score) [1]: “++++” (>75% = ++++)

Substance: 320 (MEVDPIGHVYIF; listed as Homo sapiens) [compound 320]
Peptide exchange (peptide exchange yield, MHC class I binding score) [2]: “++++” (>75% = ++++) | Wells positive [%] [3]: “+” (<20% = +)

Substance: 322 (KEVDPAGHSY; listed as Homo sapiens) [compound 322]
Peptide exchange (peptide exchange yield, MHC class I binding score) [2]: “++” (>20% = ++) | Wells positive [%] [3]: “++” (20%-49% = ++)

Substance: 323 (SEFMQVIF; listed as Homo sapiens) [compound 323]
Peptide exchange (peptide exchange yield, MHC class I binding score) [2]: “+++” (>50 =+++) | Wells positive [%] [3]: “+” (<20% = +)

Substance: 325 (QEQDVDLVQKY; listed as Homo sapiens) [compound 325]
Peptide exchange (peptide exchange yield, MHC class I binding score) [2]: “++” (>20% = ++) | Wells positive [%] [3]: “+” (<20% = +)

Substance: 326 (QEMQHFLGL; listed as Homo sapiens) [compound 326]
Peptide exchange (peptide exchange yield, MHC class I binding score) [2]: “+++” (>50 =+++) | Wells positive [%] [3]: “+” (<20% = +)

Substance: 328 (FEYDFLLQRI; listed as Homo sapiens) [compound 328]
Peptide exchange (peptide exchange yield, MHC class I binding score) [2]: “++++” (>75% = ++++) | Wells positive [%] [3]: “+” (<20% = +)

Substance: 329 (NEHPSNNW; listed as Homo sapiens) [compound 329]
Peptide exchange (peptide exchange yield, MHC class I binding score) [2]: “+++” (>50 =+++) | Wells positive [%] [3]: “+” (<20% = +)

Substance: 330 (KEGDLGGKQW; listed as Homo sapiens) [compound 330]
Peptide exchange (peptide exchange yield, MHC class I binding score) [2]: “+++” (>50 =+++) | Wells positive [%] [3]: “+” (<20% = +)

Substance: 331 (EDAQGHIW; listed as Homo sapiens) [compound 331]
Peptide exchange (peptide exchange yield, MHC class I binding score) [2]: “+++” (>50 =+++) | Wells positive [%] [3]: “++” (20%-49% = ++)

Substance: 333 (AETLSTIQI; listed as Homo sapiens) [compound 333]
Peptide exchange (peptide exchange yield, MHC class I binding score) [2]: “+++” (>50 =+++) | Wells positive [%] [3]: “+” (<20% = +)

Substance: 334 (AEDEPAAAHL; listed as Homo sapiens) [compound 334]
Peptide exchange (peptide exchange yield, MHC class I binding score) [2]: “++” (>20% = ++) | Wells positive [%] [3]: “+” (<20% = +)

Substance: 337 (TENRYCVQL; listed as Homo sapiens) [compound 337]
Peptide exchange (peptide exchange yield, MHC class I binding score) [2]: “++++” (>75% = ++++) | Wells positive [%] [3]: “++” (20%-49% = ++)

Substance: 338 (SEGSEPALLHSW; listed as Homo sapiens) [compound 338]
Peptide exchange (peptide exchange yield, MHC class I binding score) [2]: “+++” (>50 =+++) | Wells positive [%] [3]: “+” (<20% = +)

Substance: 339 (SEPALLHSW; listed as Homo sapiens) [compound 339]
Peptide exchange (peptide exchange yield, MHC class I binding score) [2]: “+++” (>50 =+++) | Wells positive [%] [3]: “++” (20%-49% = ++)

Substance: 342 (HEFSSPSHL; listed as Homo sapiens) [compound 342]
Peptide exchange (peptide exchange yield, MHC class I binding score) [2]: “+++” (>50 =+++) | Wells positive [%] [3]: “+” (<20% = +)

Substance: AEIEADRSY (listed as Homo sapiens) [SEQ ID NO: 531]
binding to HLA allotype [2]: binds to HLA-B*44

Continued, in another order:

Peptide exchange (peptide exchange yield, MHC class I binding score) [2]: “+++” (>50 =+++)
Substance: 357 (RELENCFQIQ; listed as Homo sapiens) [compound 357]

Peptide exchange (peptide exchange yield, MHC class I binding score) [2]: “++++” (>75% = ++++)
Substance: 358 (KEADIHFLI; listed as Homo sapiens) [compound 358]

Peptide exchange (peptide exchange yield, MHC class I binding score) [2]: “+++” (>50 =+++)
Substance: 359 (DELFSIALY; listed as Homo sapiens) [compound 359]

Peptide exchange (peptide exchange yield, MHC class I binding score) [2]: “++++” (>75% = ++++)
Substance: 360 (AEVPTGVII; listed as Homo sapiens) [compound 360]

Peptide exchange (peptide exchange yield, MHC class I binding score) [2]: “++++” (>75% = ++++)
Substance: 361 (SENLFFASF; listed as Homo sapiens) [compound 361]

Peptide exchange (peptide exchange yield, MHC class I binding score) [2]: “+++” (>50 =+++)
Substance: 362 (SEKGVIQVY; listed as Homo sapiens) [compound 362]

Peptide exchange (peptide exchange yield, MHC class I binding score) [2]: “+++” (>50 =+++)
Substance: 363 (AELDKLTSV; listed as Homo sapiens) [compound 363]

Peptide exchange (peptide exchange yield, MHC class I binding score) [2]: “+++” (>50 =+++)
Substance: 364 (AETPIQNVI; listed as Homo sapiens) [compound 364]

Peptide exchange (peptide exchange yield, MHC class I binding score) [2]: “++++” (>75% = ++++)
Substance: 365 (SEMNVNMKY; listed as Homo sapiens) [compound 365]

Peptide exchange (peptide exchange yield, MHC class I binding score) [2]: “++” (>20% = ++)
Substance: 366 (AENLFRAF; listed as Homo sapiens) [compound 366]

Peptide exchange (peptide exchange yield, MHC class I binding score) [2]: “+++” (>50 =+++)
Substance: 367 (GEVHPSEMI; listed as Homo sapiens) [compound 367]

Peptide exchange (peptide exchange yield, MHC class I binding score) [2]: “++” (>20% = ++)
Substance: 368 (GEFPVRVQV; listed as Homo sapiens) [compound 368]

Peptide exchange (peptide exchange yield, MHC class I binding score) [2]: “+++” (>50 =+++)
Substance: 369 (EEIERFFKL; listed as Homo sapiens) [compound 369]

Peptide exchange (peptide exchange yield, MHC class I binding score) [2]: “+” (>10% = +)
Substance: 370 (YEDLSQKY; listed as Homo sapiens) [compound 370]

Peptide exchange (peptide exchange yield, MHC class I binding score) [2]: “++” (>20% = ++)
Substance: 371 (GELALKKKI; listed as Homo sapiens) [compound 371]

Peptide exchange (peptide exchange yield, MHC class I binding score) [2]: “++” (>20% = ++)
Substance: 372 (TEGIIMKDF; listed as Homo sapiens) [compound 372]

Peptide exchange (peptide exchange yield, MHC class I binding score) [2]: “+++” (>50 =+++)
Substance: 373 (MEMQKSPVF; listed as Homo sapiens) [compound 373]

Peptide exchange (peptide exchange yield, MHC class I binding score) [2]: “+” (>10% = +)
Substance: 374 (DEVNFLVY; listed as Homo sapiens) [compound 374]

Peptide exchange (peptide exchange yield, MHC class I binding score) [2]: “++” (>20% = ++)
Substance: 476 (AEEEIMKKI; listed as Homo sapiens) [compound 476]
Wells positive [%] [3]: “+” (<20% = +)

Peptide exchange (peptide exchange yield, MHC class I binding score) [2]: “+++” (>50 =+++)
Substance: 477 (QENSYQSRL; listed as Homo sapiens) [compound 477]
Wells positive [%] [3]: “+” (<20% = +)

Peptide exchange (peptide exchange yield, MHC class I binding score) [2]: “+++” (>50 =+++)
Substance: 478 (SEIEQEIGSL; listed as Homo sapiens) [compound 478]

Peptide exchange (peptide exchange yield, MHC class I binding score) [2]: “+++” (>50 =+++)
Substance: 479 (AEIQPQTQV; listed as Homo sapiens) [compound 479]

Peptide exchange (peptide exchange yield, MHC class I binding score) [2]: “++” (>20% = ++)
Substance: 480 (GEVSGLTKDF; listed as Homo sapiens) [compound 480]

Peptide exchange (peptide exchange yield, MHC class I binding score) [2]: “+++” (>50 =+++)
Substance: 481 (RELQHEHSL; listed as Homo sapiens) [compound 481]

Peptide exchange (peptide exchange yield, MHC class I binding score) [2]: “+++” (>50 =+++)
Substance: 482 (TEREWADEW; listed as Homo sapiens) [compound 482]

Peptide exchange (peptide exchange yield, MHC class I binding score) [2]: “+++” (>50 =+++)
Substance: 483 (EENDQSTHKW; listed as Homo sapiens) [compound 483]

Peptide exchange (peptide exchange yield, MHC class I binding score) [2]: “++++” (>75% = ++++)
Substance: 484 (AEVGFVRFF; listed as Homo sapiens) [compound 484]

Peptide exchange (peptide exchange yield, MHC class I binding score) [2]: “+++” (>50 =+++)
Substance: 485 (SEIEDSTKQVF; listed as Homo sapiens) [compound 485]

Peptide exchange (peptide exchange yield, MHC class I binding score) [2]: “+++” (>50 =+++)
Substance: 486 (SEDDPILQI; listed as Homo sapiens) [compound 486]

Peptide exchange (peptide exchange yield, MHC class I binding score) [2]: “+++” (>50 =+++)
Substance: 487 (AEDQLHHSF; listed as Homo sapiens) [compound 487]

Peptide exchange (peptide exchange yield, MHC class I binding score) [2]: “++” (>20% = ++)
Substance: 488 (TEFPIIKMY; listed as Homo sapiens) [compound 488]

Peptide exchange (peptide exchange yield, MHC class I binding score) [2]: “++++” (>75% = ++++)
Substance: 489 (SEIGKAVGF; listed as Homo sapiens) [compound 489]
